The source of these data is article PMC12136037, “Type II kinase inhibitors that target Parkinson’s disease–associated LRRK2” (Science Advances, 2025).

Each structure is given as a SMILES string.

What all share (assay): DSF 100 kinase selectivity screen;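 also: compound tested at 20 µM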
Holding throughout (type): binding

Assay [1] deals with T1, ~100 representative kinases (Homo sapiens, UniProt P45985).
T1 construct: Recombinant protein kinase domains with a concentration of 2 μM
T1 sequence (P45985 1-399): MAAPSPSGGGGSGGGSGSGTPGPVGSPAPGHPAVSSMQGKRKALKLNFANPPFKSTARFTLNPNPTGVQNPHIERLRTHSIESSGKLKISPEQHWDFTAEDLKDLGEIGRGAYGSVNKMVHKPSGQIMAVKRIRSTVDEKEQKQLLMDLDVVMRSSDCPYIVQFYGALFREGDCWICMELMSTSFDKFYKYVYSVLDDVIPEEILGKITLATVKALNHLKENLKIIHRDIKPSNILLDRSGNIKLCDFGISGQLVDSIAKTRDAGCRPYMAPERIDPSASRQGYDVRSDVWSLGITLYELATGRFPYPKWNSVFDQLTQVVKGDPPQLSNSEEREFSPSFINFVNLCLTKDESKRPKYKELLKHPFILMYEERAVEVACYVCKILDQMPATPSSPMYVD
Conditions: protein MAP2K4; average of three replicates. Put shortly:
(§1)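 Each kinase domain, at 2 μM, is mixed with 20 μM test compound and SYPRO Orange in Hepes (20 mM, pH 7.5) with 500 mM NaCl. Temperature is then raised at 3°C/min and fluorescence-monitored unfolding yields the melting temperature change, ΔTm in degrees Celsius.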

Assay [2] addresses T2, ~100 representative kinases (Homo sapiens, UniProt O95747).
T2 construct: Recombinant protein kinase domains with a concentration of 2 μM
Conditions: protein OSR1; average of three replicates. The gist of the method: as §1

Assay [3] deals with T3, ~100 representative kinases (Homo sapiens, UniProt Q13188).
T3 construct: Recombinant protein kinase domains with a concentration of 2 μM
T3 sequence (Q13188 1-491): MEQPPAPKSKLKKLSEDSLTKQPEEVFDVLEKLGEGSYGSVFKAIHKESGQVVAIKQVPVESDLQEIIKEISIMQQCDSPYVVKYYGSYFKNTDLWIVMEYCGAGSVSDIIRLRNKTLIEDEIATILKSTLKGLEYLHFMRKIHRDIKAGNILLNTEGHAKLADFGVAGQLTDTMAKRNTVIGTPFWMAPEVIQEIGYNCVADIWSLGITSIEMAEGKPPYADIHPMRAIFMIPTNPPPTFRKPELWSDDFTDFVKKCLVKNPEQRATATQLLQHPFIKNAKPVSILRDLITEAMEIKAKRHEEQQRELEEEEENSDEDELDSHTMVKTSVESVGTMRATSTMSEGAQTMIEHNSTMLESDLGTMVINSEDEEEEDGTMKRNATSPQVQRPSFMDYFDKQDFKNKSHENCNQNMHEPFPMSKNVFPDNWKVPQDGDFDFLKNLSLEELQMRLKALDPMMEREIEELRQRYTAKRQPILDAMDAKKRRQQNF
Conditions: Protein STK3; DSF; average of three replicates. The gist of the method:
as §1

The target in assay [4] is T4, ~100 representative kinases (Homo sapiens, UniProt Q8IU85).
T4 construct: Recombinant protein kinase domains with a concentration of 2 μM
T4 sequence (Q8IU85 whole entry, the tested form may be a part): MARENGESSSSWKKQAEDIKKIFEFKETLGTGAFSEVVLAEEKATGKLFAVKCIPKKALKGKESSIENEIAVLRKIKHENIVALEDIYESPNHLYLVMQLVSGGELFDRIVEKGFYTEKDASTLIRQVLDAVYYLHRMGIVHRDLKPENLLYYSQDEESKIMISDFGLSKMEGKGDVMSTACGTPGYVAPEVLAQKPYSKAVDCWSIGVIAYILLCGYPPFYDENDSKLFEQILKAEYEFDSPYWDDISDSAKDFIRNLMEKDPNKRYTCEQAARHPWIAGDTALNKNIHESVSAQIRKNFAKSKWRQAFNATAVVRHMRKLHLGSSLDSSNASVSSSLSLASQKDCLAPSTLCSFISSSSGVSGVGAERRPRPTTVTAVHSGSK
Conditions: Protein CAMK1D; average of three replicates. The gist of the method:
as §1

Assay [5] has as its target T5, ~100 representative kinases (Homo sapiens, UniProt Q15418).
T5 construct: Recombinant protein kinase domains with a concentration of 2 μM
Conditions: Protein RPS6KA1; DSF; average of three replicates. The gist of the method:
as §1

In assay [6] the target is T6, ~100 representative kinases (Homo sapiens, UniProt Q8TF76).
T6 construct: Recombinant protein kinase domains with a concentration of 2 μM
T6 sequence (Q8TF76 1-798): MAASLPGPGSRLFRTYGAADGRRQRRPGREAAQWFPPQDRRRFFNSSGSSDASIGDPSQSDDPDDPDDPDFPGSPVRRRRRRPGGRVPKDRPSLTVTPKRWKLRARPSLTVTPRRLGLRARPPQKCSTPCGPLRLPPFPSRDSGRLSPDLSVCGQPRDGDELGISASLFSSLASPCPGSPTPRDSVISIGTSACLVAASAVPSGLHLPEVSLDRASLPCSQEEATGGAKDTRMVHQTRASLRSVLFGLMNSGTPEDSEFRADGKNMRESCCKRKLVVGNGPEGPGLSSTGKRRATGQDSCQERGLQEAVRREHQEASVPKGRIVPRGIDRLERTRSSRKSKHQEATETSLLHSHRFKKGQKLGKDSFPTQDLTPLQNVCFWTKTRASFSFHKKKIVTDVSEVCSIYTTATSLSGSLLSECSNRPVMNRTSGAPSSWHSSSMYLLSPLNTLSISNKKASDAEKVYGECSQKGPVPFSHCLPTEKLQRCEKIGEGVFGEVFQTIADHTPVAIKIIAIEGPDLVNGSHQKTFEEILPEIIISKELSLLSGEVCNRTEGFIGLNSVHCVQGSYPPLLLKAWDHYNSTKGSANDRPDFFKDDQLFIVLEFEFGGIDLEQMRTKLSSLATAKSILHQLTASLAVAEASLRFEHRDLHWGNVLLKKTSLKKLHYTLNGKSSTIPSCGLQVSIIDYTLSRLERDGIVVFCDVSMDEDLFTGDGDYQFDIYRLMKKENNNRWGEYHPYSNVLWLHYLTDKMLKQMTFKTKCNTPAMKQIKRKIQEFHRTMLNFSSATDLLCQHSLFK
Conditions: protein GSG2; average of three replicates. The gist of the method: as §1

Assay [7] deals with T7, ~100 representative kinases (Homo sapiens, UniProt P11362).
T7 construct: Recombinant protein kinase domains with a concentration of 2 μM
T7 sequence (P11362 22-822): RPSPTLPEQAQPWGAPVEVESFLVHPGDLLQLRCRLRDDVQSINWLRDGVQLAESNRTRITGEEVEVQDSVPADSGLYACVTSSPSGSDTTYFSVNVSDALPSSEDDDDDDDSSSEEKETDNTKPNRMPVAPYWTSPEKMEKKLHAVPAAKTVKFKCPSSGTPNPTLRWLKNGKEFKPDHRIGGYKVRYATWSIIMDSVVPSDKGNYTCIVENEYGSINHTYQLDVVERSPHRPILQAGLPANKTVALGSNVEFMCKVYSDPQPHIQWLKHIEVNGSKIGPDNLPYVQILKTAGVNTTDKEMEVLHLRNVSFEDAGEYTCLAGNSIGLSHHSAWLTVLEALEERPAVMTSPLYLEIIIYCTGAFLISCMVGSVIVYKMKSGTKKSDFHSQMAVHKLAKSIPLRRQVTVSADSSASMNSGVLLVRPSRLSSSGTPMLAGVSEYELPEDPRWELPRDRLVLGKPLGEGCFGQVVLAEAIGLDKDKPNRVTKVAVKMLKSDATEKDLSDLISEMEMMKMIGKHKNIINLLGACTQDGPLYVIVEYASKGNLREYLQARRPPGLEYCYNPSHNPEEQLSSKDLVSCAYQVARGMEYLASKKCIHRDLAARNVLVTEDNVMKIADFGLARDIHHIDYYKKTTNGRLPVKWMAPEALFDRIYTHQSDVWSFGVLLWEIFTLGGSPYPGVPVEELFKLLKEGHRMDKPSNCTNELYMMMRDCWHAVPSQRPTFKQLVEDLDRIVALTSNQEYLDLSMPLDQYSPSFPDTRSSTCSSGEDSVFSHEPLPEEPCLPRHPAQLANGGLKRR
Conditions: protein FGFR1; average of three replicates. The gist of the method:
as §1

Assay [8] addresses T8, ~100 representative kinases (Homo sapiens, UniProt O75582).
T8 construct: Recombinant protein kinase domains with a concentration of 2 μM
Conditions: Protein RPS6KA5; DSF; average of three replicates. The gist of the method: as §1

Assay [9] has as its target T9, ~100 representative kinases (Homo sapiens, UniProt Q86V86).
T9 construct: Recombinant protein kinase domains with a concentration of 2 μM
Conditions: protein PIM3; average of three replicates. The gist of the method:
as §1

Assay [10] has as its target T10, ~100 representative kinases (Homo sapiens, UniProt P07332).
T10 construct: Recombinant protein kinase domains with a concentration of 2 μM
Conditions: protein FESA; average of three replicates. Put shortly: as §1

Assay [11] addresses T11, ~100 representative kinases (Homo sapiens, UniProt P00519).
T11 construct: Recombinant protein kinase domains with a concentration of 2 μM
Conditions: Protein ABL1; average of three replicates. Put shortly:
as §1

T8 sequence (O75582 whole entry, the tested form may be a part): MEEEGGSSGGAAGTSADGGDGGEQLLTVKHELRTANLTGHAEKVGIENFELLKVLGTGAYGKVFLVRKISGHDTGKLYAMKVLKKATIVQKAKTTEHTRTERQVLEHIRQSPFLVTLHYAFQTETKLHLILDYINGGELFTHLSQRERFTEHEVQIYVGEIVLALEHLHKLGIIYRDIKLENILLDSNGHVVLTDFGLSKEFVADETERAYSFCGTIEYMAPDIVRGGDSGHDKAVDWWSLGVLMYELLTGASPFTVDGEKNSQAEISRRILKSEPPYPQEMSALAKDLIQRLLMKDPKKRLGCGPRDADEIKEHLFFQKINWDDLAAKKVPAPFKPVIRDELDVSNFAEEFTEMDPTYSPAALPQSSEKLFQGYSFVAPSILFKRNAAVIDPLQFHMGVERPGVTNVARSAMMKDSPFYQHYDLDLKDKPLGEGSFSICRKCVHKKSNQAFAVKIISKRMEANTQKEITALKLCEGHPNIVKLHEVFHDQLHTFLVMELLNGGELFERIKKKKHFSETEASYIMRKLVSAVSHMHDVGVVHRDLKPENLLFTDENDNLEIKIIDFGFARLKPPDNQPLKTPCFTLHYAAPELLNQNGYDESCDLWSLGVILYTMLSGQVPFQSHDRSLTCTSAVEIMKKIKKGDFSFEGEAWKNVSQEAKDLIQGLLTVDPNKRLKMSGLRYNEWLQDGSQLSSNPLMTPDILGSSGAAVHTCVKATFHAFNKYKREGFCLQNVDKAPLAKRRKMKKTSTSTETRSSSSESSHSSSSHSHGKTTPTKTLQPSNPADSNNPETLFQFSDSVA
T11 sequence (P00519 whole entry, the tested form may be a part): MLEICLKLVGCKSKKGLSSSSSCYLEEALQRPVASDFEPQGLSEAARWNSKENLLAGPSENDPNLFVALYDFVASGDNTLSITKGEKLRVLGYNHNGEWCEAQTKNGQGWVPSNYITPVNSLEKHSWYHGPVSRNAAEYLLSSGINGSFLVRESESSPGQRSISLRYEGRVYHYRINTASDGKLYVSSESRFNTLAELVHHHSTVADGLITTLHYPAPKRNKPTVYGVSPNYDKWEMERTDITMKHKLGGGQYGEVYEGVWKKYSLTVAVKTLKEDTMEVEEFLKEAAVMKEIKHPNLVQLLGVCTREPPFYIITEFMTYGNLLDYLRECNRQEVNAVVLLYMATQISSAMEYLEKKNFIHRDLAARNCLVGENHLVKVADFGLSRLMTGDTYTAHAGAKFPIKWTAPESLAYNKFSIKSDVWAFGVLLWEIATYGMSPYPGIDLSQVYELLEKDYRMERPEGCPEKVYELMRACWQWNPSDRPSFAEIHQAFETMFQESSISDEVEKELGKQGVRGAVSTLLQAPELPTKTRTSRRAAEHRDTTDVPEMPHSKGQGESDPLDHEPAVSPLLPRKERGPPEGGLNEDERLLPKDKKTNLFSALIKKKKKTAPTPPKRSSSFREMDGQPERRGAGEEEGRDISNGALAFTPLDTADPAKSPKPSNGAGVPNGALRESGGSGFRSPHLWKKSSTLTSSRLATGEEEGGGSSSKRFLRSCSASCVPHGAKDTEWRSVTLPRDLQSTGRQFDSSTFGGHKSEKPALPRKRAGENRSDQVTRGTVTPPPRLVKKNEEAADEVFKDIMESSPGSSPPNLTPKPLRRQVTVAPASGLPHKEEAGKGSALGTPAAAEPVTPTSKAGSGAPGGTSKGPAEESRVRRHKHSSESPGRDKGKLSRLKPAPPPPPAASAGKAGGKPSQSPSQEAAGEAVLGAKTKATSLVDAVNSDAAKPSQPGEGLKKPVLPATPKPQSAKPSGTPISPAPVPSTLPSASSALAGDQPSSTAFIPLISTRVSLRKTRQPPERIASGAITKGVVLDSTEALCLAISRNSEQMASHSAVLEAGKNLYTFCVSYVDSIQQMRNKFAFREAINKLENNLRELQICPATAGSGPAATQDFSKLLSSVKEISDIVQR
T10 sequence (P07332 whole entry, the tested form may be a part): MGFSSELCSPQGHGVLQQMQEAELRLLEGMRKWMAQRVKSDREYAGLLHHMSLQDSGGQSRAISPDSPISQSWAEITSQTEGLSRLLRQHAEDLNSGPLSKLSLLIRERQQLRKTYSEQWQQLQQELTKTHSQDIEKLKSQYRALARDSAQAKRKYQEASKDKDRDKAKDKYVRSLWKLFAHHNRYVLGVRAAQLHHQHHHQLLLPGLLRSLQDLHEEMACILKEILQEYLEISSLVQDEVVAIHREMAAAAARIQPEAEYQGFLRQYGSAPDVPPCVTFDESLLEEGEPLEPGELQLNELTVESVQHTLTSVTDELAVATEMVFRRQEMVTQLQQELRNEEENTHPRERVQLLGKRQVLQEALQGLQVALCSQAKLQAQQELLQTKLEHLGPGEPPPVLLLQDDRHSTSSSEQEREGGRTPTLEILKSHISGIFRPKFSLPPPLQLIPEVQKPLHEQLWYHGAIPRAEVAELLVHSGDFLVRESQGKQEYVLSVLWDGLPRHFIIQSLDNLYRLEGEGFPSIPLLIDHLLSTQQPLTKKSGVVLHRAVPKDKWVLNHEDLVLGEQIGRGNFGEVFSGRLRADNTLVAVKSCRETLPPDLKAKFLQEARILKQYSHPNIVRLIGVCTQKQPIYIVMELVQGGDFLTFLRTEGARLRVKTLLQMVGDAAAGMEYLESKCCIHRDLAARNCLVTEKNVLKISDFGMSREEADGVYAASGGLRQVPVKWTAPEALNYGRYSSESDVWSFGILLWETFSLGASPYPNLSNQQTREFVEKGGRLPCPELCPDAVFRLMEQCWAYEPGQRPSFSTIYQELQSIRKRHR
T5 sequence (Q15418 whole entry, the tested form may be a part): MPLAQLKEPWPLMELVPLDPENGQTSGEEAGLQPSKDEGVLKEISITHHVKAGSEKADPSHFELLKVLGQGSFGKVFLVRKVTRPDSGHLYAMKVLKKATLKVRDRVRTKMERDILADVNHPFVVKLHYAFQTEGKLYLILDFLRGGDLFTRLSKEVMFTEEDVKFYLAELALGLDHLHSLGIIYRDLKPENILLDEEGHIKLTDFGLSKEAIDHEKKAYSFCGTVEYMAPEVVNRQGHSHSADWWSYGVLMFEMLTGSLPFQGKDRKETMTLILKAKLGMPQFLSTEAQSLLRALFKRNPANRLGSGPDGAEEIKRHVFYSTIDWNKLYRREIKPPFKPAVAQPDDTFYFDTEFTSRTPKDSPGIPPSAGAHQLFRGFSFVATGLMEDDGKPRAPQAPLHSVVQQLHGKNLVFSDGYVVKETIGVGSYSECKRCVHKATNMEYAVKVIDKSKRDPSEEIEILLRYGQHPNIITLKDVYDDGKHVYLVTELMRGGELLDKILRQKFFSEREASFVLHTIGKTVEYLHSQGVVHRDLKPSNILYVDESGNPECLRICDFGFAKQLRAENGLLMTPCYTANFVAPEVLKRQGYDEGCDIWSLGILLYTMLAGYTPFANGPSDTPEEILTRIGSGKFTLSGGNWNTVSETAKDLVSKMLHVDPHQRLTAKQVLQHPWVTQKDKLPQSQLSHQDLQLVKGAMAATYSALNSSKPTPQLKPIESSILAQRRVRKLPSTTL

As to `COc1cc(S(C)(=O)=O)ccc1Nc1nc(N(C)C)c2c(Cl)c[nH]c2n1` [Compound 37], the dTm in assay [1] was 4.74 K; in assay [2], 1.40 K; in assay [3], -0.72 K; in assay [4] it was 0.49 K; in [5], 0.36 K; in [6], 0.32 K. Also, the dTm in [7] was determined as 0.09 K; in [8], 1.80 K; in [9], 0.48 K; in assay [10], 2.13 K; in assay [11] it was 0.38 K.

In the case of `COc1cc2c(Oc3ccc(NC(=O)C4(C(=O)Nc5ccc(F)cc5)CC4)cc3F)ccnc2cc1OCCCN1CCOCC1` [Foretinib, reference compound], the dTm is listed as 2.73 K in assay [1]; -0.48 K in [2]; 8.88 K in [3]; 0.45 K in [4]; -0.88 K in assay [5]; 1.08 K in assay [6]. Besides, the dTm was 5.33 K in assay [7]; 0.57 K in [8]; -0.88 K in [9]; 6.46 K in assay [10]; 13.44 K in assay [11].

For `CCNc1nc(Nc2cc(F)c(C(=O)N3CCOCC3)cc2OC)ncc1C(F)(F)F` [GNE-7915], the dTm is on record as 1.26 K in assay [1]; 0.21 K in assay [2]; 0.97 K in assay [3]; -0.16 K in assay [4]; 0.64 K in assay [5]; -0.09 K in [6]. For the same compound, the dTm amounted to 0.25 K in assay [7]; 3.91 K in assay [8]; 0.92 K in assay [9]; 2.48 K in assay [10]; 0.74 K in assay [11].

Regarding `C[C@@H]1CN(c2cc(-c3n[nH]c4ccc(OC5(C)CC5)cc34)ncn2)C[C@H](C)O1` [MLi2], the dTm in assay [1] is recorded as 0.87 K; in [2] it was 0.07 K; in [3], 0.09 K; in assay [4] it was 2.16 K; in assay [5] it was 2.98 K; in assay [6], 0.08 K. In addition, the dTm in assay [7] was -0.19 K; in assay [8], -1.02 K; in [9] it was 0.23 K; in assay [10] it was 1.83 K; in assay [11], 0.50 K.

For the compound `Cn1cc(-c2c[nH]c3ncnc(N4CCOCC4)c23)cc1C#N` [PFE-360], the dTm in [1] is listed as 1.90 K; in assay [2], -0.14 K; in assay [3], 6.99 K; in assay [4] it was -1.69 K; in assay [5], 1.09 K; in assay [6], 2.32 K. Besides, the dTm in [7] is listed as 0.13 K; in assay [8], 0.69 K; in assay [9], 0.58 K; in assay [10], 0.78 K; in assay [11], 3.25 K.
